{"source": "ChEMBL document CHEMBL5260858", "about": "“Targeting mycobacterial membranes and membrane proteins: Progress and limitations” (Bioorg Med Chem, 2023)", "system": "Mycobacterium tuberculosis", "test": "Antitubercular activity against Mycobacterium africanum ATCC 25420 assessed as bacterial growth inhibition by agar dilution method", "assay_type": "functional", "details": "variant africanum ATCC 25420", "data": [{"smiles": "O=C1CCc2c(cccc2OC[C@]2(O)CCN(c3c(F)cc(Cl)cc3F)C[C@H]2O)N1", "values": [{"measurement": "MIC", "result": 2, "unit": "ng/mL"}]}]}
